# Measurements reported in patent US7662896B2, “Fluorochemical sulfonamide surfactants” (3M Innovative Properties Company, priority 1999, dated 2010).
# Columns and labels:
# [1] = test system: SPF-bred Sprague Dawley rats; experiment: 28-day oral toxicity study by daily gavage in the rat; format: in vivo; conditions: 28 days daily oral gavage; 3 (C8), 10 (C6), 30 (C4) mg/kg body weight/day
# Method: (§1) A 28-day oral toxicity study with perfluorooctanesulfonate (C8F17SO3^−) was conducted by daily gavage in the rat followed by 14 and 28 day recovery periods. The dose levels for the study were selected to be 0 mg/kg body weight/day for species control, and 3 mg/kg body weight/day for potassium perfluorooctanesulfonate. The potassium perfluorooctanesulfonate was formulated in 1% aqueous carboxymethyl cellulose and administered daily for 28 days by oral gavage to SPF-bred Sprague Dawley rats. A vehicle control group and a treated group were tested, each consisting of 8 male and 8 female rats. An extra 3 rats per sex per group were allowed 14 days of recovery, and another 3 rats per sex per group were allowed 28 days of recovery.
# [2] = Amount of perfluoroalkylsulfonate in male rat liver tissue (HPLC/ESMS/MS); format: in vivo
# Method: as §1
# Extracted liver tissue samples from the sacrificed rats of the study were homogenized and extracted using an ion-pairing extraction procedure. The extracts were quantitatively analyzed using high-pressure liquid chromatography/electrospray tandem mass spectroscopy (HPLC/ESMS/MS) and evaluated.
# [3] = Surface tension in water (Test Procedure I, Kruss K12 Tensiometer); format: physicochemical; conditions: for Surface Tension (dynes/cm) at Various Surfactant Concentrations: 23 ppm: 23 ppm in water; for Surface Tension (dynes/cm) at Various Surfactant Concentrations: 83 ppm: 83 ppm in water; for Surface Tension (dynes/cm) at Various Surfactant Concentrations: 164 ppm: 164 ppm in water; for Surface Tension (dynes/cm) at Various Surfactant Concentrations: 273 ppm: 273 ppm in water; for Surface Tension (dynes/cm) at Various Surfactant Concentrations: 421 ppm: 421 ppm in water; for Surface Tension (dynes/cm) at Various Surfactant Concentrations: 617 ppm: 617 ppm in water; for Surface Tension (dynes/cm) at Various Surfactant Concentrations: 875 ppm: 875 ppm in water; for Surface Tension (dynes/cm) at Various Surfactant Concentrations: 1032 ppm: 1032 ppm in water
# Method: Test Procedure I—Surface Tension Determination
# All surface tensions were determined using a Kruss K12 Tensiometer. […] The program was run using a Wilhelmy platinum plate (PL12) and glass sample vessel (GL7).
# [4] = Dynamic surface tension of water (Kruss Bubble Pressure Tensiometer BP2); format: physicochemical; conditions: 0.5 weight % in water; for Dynamic Surface Tension (mN/m) at Indicated Bubble Frequency (Hz): 0.01: 0.01 Hz; for Dynamic Surface Tension (mN/m) at Indicated Bubble Frequency (Hz): 0.5: 0.5 Hz; for Dynamic Surface Tension (mN/m) at Indicated Bubble Frequency (Hz): 1.0: 1.0 Hz; for Dynamic Surface Tension (mN/m) at Indicated Bubble Frequency (Hz): 5.0: 5.0 Hz
# Method: The dynamic surface tension of water containing 0.5 weight % FC-171 (C8F17SO2N(Et)(CH2CH2O)7.5CH3, for which the surface tension was measured in Comparative Example C2, was measured with a Kruss Bubble Pressure Tensiometer, Model BP2 (Kruss USA, Charlotte, N.C.). The results are shown in Table 11.
# [5] = Contact angle measurement on glass cover slips (Test Procedure II); format: physicochemical
# Method: Test Procedure II—Contact Angle Measurement
# Glass cover slips were rinsed with HPLC water and allow to air dry. The surfactant to be tested was mixed at 0.01 weight % with HPLC water. The pH was measured and if below 9, the pH was adjust to 9 by adding several drops of 1% NH4OH. The surface tension of the surfactant solution was determined using Test Procedure I.
# A clean, dry glass cover slip was placed in the clamp and lower to ˜1 mm above the surface of the surfactant/water solution. Velocity search was set at 6 mm/min and velocity measure was set at 4 mm/min. Immersion depth was at least 10 mm, depending on the size of the cover slip. Advancing and receding contact angles were measured with 3 cycles. The cover slip was allowed to dry in the clamp, above the solution, for ten minutes. Advancing and receding contact angles were measured a second time with 3 cycles.
# [6] = Wetting and film characterization on glass surface (Test Procedure III); format: physicochemical
# Method: Test Procedure III—Wetting and Film Characterization on Glass Surface
# A solution of the surfactant to be tested was prepared at 0.01% by weight in HPLC grade water. The surfactant solution pH was measured and if necessary, pH was adjusted to 9 by adding several drops of 1% NH4OH. Glass plates were cleaned using Windex and a squeegee. Cleaned plates placed on top of 5.1 cm by 5.1 cm by 10.2 cm wood supports, which were laid out in a parallel arrangement. Two glass plates were used for each surfactant solution and laid out adjacent to each other. Surfactant solution (10 drops) was placed on each of the two plates and observed for solution hydrophilic or hydrophobic characteristics. The solution was considered hydrophilic if it was spread out and hydrophobic if it beaded up. The surfactant solutions were allowed to air dry and the resulting film on the glass plate observed for solution autophilic or autophobic properties. The solution was considered autophilic if it dried as a sheet and autophobic if it dried in separate puddles. […] On one of the plates with the dried surfactant film was placed 10 drops of the same surfactant solution on top of the area with the dry film. […] On the other plate was placed 10 drops of HPLC grade water on top of the area with the dry film, and hydrophilic or hydrophobic characteristics were observed.
# [7] = 0.01 weight % solution, glass with a film of dried surfactant solution
# [8] = 0.01 weight % surfactant solution in HPLC water
# [9] = 0.01 weight % solution air dried on glass
Surface Tension (dynes/cm) at Various Surfactant Concentrations: 23 ppm [3] [dynes/cm],Surface Tension (dynes/cm) at Various Surfactant Concentrations: 83 ppm [3] [dynes/cm],Surface Tension (dynes/cm) at Various Surfactant Concentrations: 164 ppm [3] [dynes/cm],Surface Tension (dynes/cm) at Various Surfactant Concentrations: 273 ppm [3] [dynes/cm],Surface Tension (dynes/cm) at Various Surfactant Concentrations: 421 ppm [3] [dynes/cm],Surface Tension (dynes/cm) at Various Surfactant Concentrations: 617 ppm [3] [dynes/cm],Surface Tension (dynes/cm) at Various Surfactant Concentrations: 875 ppm [3] [dynes/cm],Surface Tension (dynes/cm) at Various Surfactant Concentrations: 1032 ppm [3] [dynes/cm],Compound,Dynamic Surface Tension (mN/m) at Indicated Bubble Frequency (Hz): 0.01 [4] [mN/m],Dynamic Surface Tension (mN/m) at Indicated Bubble Frequency (Hz): 0.5 [4] [mN/m],Dynamic Surface Tension (mN/m) at Indicated Bubble Frequency (Hz): 1.0 [4] [mN/m],Dynamic Surface Tension (mN/m) at Indicated Bubble Frequency (Hz): 5.0 [4] [mN/m],further results
–,–,–,–,–,–,–,–,"O=S(=O)(O)C(F)(F)C(F)(F)C(F)(F)C(F)(F)C(F)(F)C(F)(F)F [C6F13SO3^−, perfluorohexanesulfonate]",–,–,–,–,"Observed effects in treated rats [1]: comparable, but less persistent than those of Comparative Example C22; Factor lower than C8F17SO3^− in liver ([2]; 28 days following completion of feeding): 6.5; Factor lower than C8F17SO3^− in liver ([2]; 28 days following completion of feeding, normalized to the same feeding levels): 21.5; Factor lower than C8F17SO3^− in liver ([2]; immediately following completion of feeding): 1.3; Amount (ppm) of Sulfonate Day 1N* ([2]; male rat liver, day 1, normalized to a feeding level of 3 mg/kg body weight per day): 98 ppm; Amount (ppm) of Sulfonate Day 1 ([2]; male rat liver, day 1 after 28 day dosing at 3 (C8), 10 (C6), 30 (C4) mg/kg/day): 327 ± 52 ppm; Amount (ppm) of Sulfonate Day 14N* ([2]; male rat liver, day 14, normalized to 3 mg/kg body weight per day): 19 ppm; Amount (ppm) of Sulfonate Day 14 ([2]; male rat liver, day 14 of recovery): 61.9 ± 11.7 ppm; Amount (ppm) of Sulfonate Day 28N* ([2]; male rat liver, day 28, normalized to 3 mg/kg body weight per day): 11 ppm; Amount (ppm) of Sulfonate Day 28 ([2]; male rat liver, day 28 of recovery): 36.3 ± 7.4 ppm"
33.5,21,20.5,19.5,19,19,19,19,"CCN(CCOCCOCCOCCOCCOCCOCCOC)S(=O)(=O)C(F)(F)C(F)(F)C(F)(F)C(F)(F)C(F)(F)C(F)(F)C(F)(F)C(F)(F)F [FC-171, C8F17SO2N(C2H5)(CH2CH2O)7CH3]",51,67,70,71,–
29.5,29,24,17.5,16,15.5,16,16.5,"CCN(CC(=O)[O-])S(=O)(=O)C(F)(F)C(F)(F)C(F)(F)C(F)(F)C(F)(F)C(F)(F)C(F)(F)C(F)(F)F.[K+] [FC-129, C8F17SO2N(C2H5)CH2CO2^−K^+]",–,–,–,–,"Surface Tension (dynes/cm) at Various Surfactant Concentrations: 20 ppm ([3]; 20 ppm in water): 49 dynes/cm; Surface Tension (dynes/cm) at Various Surfactant Concentrations: 200 ppm ([3]; 200 ppm in water): 23 dynes/cm; Surface Tension (dynes/cm) at Various Surfactant Concentrations: 2000 ppm ([3]; 2000 ppm in water): 17 dynes/cm; Advancing CA on Dried Surfactant [5, 7]: 64.6 °; Receding CA on Dried Surfactant [5, 7]: 12.2 °; Advancing CA on Clean Glass [5, 8]: 61.6 °; Receding CA on Clean Glass [5, 8]: 7 °; Dried film clarity [6, 9]: clear; Dried film: autophilic or autophobic [6, 9]: autophilic; Solution on clean glass: hydrophilic or hydrophobic ([6]; 0.01 weight % solution in HPLC grade water): hydrophobic; Characteristic the dried film gave to water and to the surfactant solution ([6]; 10 drops placed on the dried film): hydrophilic"

Compound,Surface Tension (dynes/cm) at Various Surfactant Concentrations: 23 ppm [3] [dynes/cm],Surface Tension (dynes/cm) at Various Surfactant Concentrations: 83 ppm [3] [dynes/cm],Surface Tension (dynes/cm) at Various Surfactant Concentrations: 164 ppm [3] [dynes/cm],Surface Tension (dynes/cm) at Various Surfactant Concentrations: 273 ppm [3] [dynes/cm],Surface Tension (dynes/cm) at Various Surfactant Concentrations: 421 ppm [3] [dynes/cm],Surface Tension (dynes/cm) at Various Surfactant Concentrations: 617 ppm [3] [dynes/cm],Surface Tension (dynes/cm) at Various Surfactant Concentrations: 875 ppm [3] [dynes/cm],Surface Tension (dynes/cm) at Various Surfactant Concentrations: 1032 ppm [3] [dynes/cm],Dynamic Surface Tension (mN/m) at Indicated Bubble Frequency (Hz): 0.01 [4] [mN/m],Dynamic Surface Tension (mN/m) at Indicated Bubble Frequency (Hz): 0.5 [4] [mN/m],Dynamic Surface Tension (mN/m) at Indicated Bubble Frequency (Hz): 1.0 [4] [mN/m],Dynamic Surface Tension (mN/m) at Indicated Bubble Frequency (Hz): 5.0 [4] [mN/m],further results
C4F9SO2N(CH3)(CH2CH2O)7.5CH3 [Example 1],31,24,23,22.5,22,21.5,20,20,21,22,22.5,23,"Surface tension in water compared with the C8F17 analog (in words) ([3]; water, plotted against concentration in FIGS. 3-5, 7, 8): very similar to that found when using the C8F17 segment"
